Source: patent US20100324829A1, “METHOD OF SELECTING HLA-DP4 LIGANDS AND THE APPLICATIONS THEREOF” (priority 2001, published 2010)
Where a chain is given by its changes, count along the chain named.

What was measured:
[1] = molecular target: T1, HLA-DP4 molecule DPA1*0103/DPB1*0401 (DP401) (Homo sapiens, UniProt P04440+P20036); assay: biochemical; format: binding
T1 construct: purified from various human B lymphocyte lines transformed with the Epstein Barr virus (EBV), which are homozygotes for DP; endogenous in cells
T1 sequence (P20036 29-260): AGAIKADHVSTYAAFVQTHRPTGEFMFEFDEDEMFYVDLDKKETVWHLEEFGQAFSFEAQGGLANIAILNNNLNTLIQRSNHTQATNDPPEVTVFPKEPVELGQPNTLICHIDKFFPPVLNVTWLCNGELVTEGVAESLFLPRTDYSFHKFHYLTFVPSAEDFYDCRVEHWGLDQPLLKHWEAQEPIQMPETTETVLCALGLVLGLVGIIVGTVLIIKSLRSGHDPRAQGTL
T1 sequence (P04440 30-258): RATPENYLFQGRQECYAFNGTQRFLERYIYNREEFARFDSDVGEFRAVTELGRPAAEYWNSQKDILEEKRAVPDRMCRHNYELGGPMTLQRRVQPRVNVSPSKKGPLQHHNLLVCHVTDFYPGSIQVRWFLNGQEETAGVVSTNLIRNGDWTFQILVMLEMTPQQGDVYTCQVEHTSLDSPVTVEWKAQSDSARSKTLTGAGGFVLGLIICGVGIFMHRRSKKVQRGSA

[2] = molecular target: T2, HLA-DP4 molecule DPA1*0103/DPB1*0402 (DP402) (Homo sapiens, UniProt P04440+P20036); assay: biochemical; format: binding
T2 construct: purified from various human B lymphocyte lines transformed with the Epstein Barr virus (EBV), which are homozygotes for DP; endogenous in cells
T2 sequence (P20036 29-260): T1 sequence (P20036 29-260)
T2 sequence (P04440 30-258 A65V/A84D/A85E): T1 sequence (P04440 30-258) with A36V, A55D, A56E

Row | Compound | IC50 ([1]; IC50 (nM) DP0401, Api m1 overlapping peptides, tracer bUNK 1-17 10 nM, pH 5, 24 h) | Loss of binding to DP*0401 (ratio of the IC50 values for the mutant peptide and for the UNK1 peptide) [1] | Loss of binding to DP*0402 (ratio of the IC50 values for the mutant peptide and for the UNK1 peptide) [2]
1 | CC[C@H](C)[C@H](NC(=O)[C@H](CC(C)C)NC(=O)[C@H](CC(N)=O)NC(=O)[C@H](Cc1ccccc1)NC(=O)[C@H](Cc1ccc(O)cc1)NC(=O)[C@H](CCSC)NC(=O)[C@H](CCCCN)NC(=O)CNC(=O)[C@@H](NC(=O)[C@H](Cc1ccccc1)NC(=O)[C@@H](N)Cc1ccc(O)cc1)C(C)C)C(=O)N[C@@H](CC(=O)O)C(=O)N[C@H](C(=O)N[C@@H](CCCCN)C(=O)N[C@@H](CS)C(=O)N[C@@H](Cc1ccc(O)cc1)C(=O)N[C@@H](CCCCN)C(=O)N[C@@H](CC(C)C)C(=O)O)[C@@H](C)O [81-98] | 2250 nM | – | –
2 | AYFAATQFEPLAA [UNK K3A] | – | 0.9 | 1
3 | KAFAATQFEPLAA [UNK Y4A] | – | 1.2 | 0.9
4 | KKFAATQFEPLAA [UNK Y4K] | – | 1.2 | 1
5 | KYAAATQFEPLAA [UNK F5A] | – | 41 | 5.7
6 | KYEAATQFEPLAA [UNK F5E] | – | 117 | 123
7 | KYFAAAQFEPLAA [UNK T8A] | – | 0.8 | 0.8
8 | KYFAADQFEPLAA [UNK T8D] | – | 2 | 2.3
9 | KYFAAEQFEPLAA [UNK T8E] | – | 2.7 | 3.7
10 | KYFAAFQFEPLAA [UNK T8F] | – | 2.7 | 1.7
11 | KYFAAKQFEPLAA [UNK T8K] | – | 31 | 3.6
12 | KYFAALQFEPLAA [UNK T8L] | – | 1.9 | 2.6
13 | KYFAANQFEPLAA [UNK T8N] | – | 4.1 | 4.8
14 | KYFAARQFEPLAA [UNK T8R] | – | 17 | 6.7
15 | KYFAASQFEPLAA [UNK T8S] | – | 2.7 | 3.4
16 | KYFAATAFEPLAA [UNK Q9A] | – | 0.8 | 0.6
17 | KYFAATKFEPLAA [UNK Q9K] | – | 1.6 | 0.9
18 | KYFAATQAEPLAA [UNK F10A] | – | 336 | 62
19 | KYFAATQEEPLAA [UNK F10E] | – | 1405 | 1190
20 | KYFAATQFAPLAA [UNK E11A] | – | 0.5 | 0.5
21 | KYFAATQFEALAA [UNK P12A] | – | 1.2 | 0.9
22 | KYFAATQFEKLAA [UNK P12K] | – | 1.8 | 1.4

Row | Compound | IC50 ([1]; IC50 (nM) DP0401, Api m1 overlapping peptides, tracer bUNK 1-17 10 nM, pH 5, 24 h) | Loss of binding to DP*0401 (ratio of the IC50 values for the mutant peptide and for the UNK1 peptide) [1] | Loss of binding to DP*0402 (ratio of the IC50 values for the mutant peptide and for the UNK1 peptide) [2]
23 | KYFAATQFEPAAA [UNK L13A] | – | 3.1 | 2.3
24 | KYFAATQFEPDAA [UNK L13D] | – | 9.4 | 9
25 | KYFAATQFEPEAA [UNK L13E] | – | 11 | 8
26 | KYFAATQFEPFAA [UNK L13F] | – | 1.7 | 4
27 | KYFAATQFEPKAA [UNK L13K] | – | 81 | 70
28 | KYFAATQFEPLAK [UNK A15K] | – | 1.7 | 1.4
29 | KYFAATQFEPLKA [UNK A13K] | – | 1.7 | 1.4
30 | KYFAATQFEPNAA [UNK L13N] | – | 17 | 10
31 | KYFAATQFEPRAA [UNK L13R] | – | 64 | 43
32 | KYFAATQFEPVAA [UNK L13V] | – | 2.5 | 1.9
33 | KYFAATQFEPYAA [UNK L13Y] | – | 2 | 15
34 | KYFAATQFKPLAA [UNK E11K] | – | 1.3 | 0.7
35 | KYFAATQKEPLAA [UNK F10K] | – | 420 | 350
36 | KYFAATQLEPLAA [UNK F10L] | – | 7.2 | 6.7
37 | KYFAATQNEPLAA [UNK F10N] | – | 2460 | 1809
38 | KYFAATQTEPLAA [UNK F10T] | – | 1171 | 476
39 | KYFAATQYEPLAA [UNK F10Y] | – | 2.4 | 3.4
40 | KYFAAYQFEPLAA [UNK T8Y] | – | 4.1 | 2.4
41 | KYFAKTQFEPLAA [UNK A7K] | – | 2 | 1.2
42 | KYFKATQFEPLAA [UNK A6K] | – | 1.6 | 1
43 | KYKAATQFEPLAA [UNK F5K] | – | 569 | 297
